In US8426612B2, “Synthesis of 3-{[(2R)-1-methylpyrrolidin-2-yl]methyl}-5[2-(phenylsulfonyl)ethyl]-1H-indole” (F.I.S. Fabbrica Italiana Sintetici S.p.A., priority 2009, dated 2013):

What was measured:
[1] = Stability tests of Eletriptan hydrobromide Beta form polymorph in various solvents, temperatures and times; type: physicochemical; details: all experiments of the 1st table: various solvents, RT to 80° C. or heating, 5-48 hr; DSC trace
From the text: Eletriptan hydrobromide Beta form obtained according to the inventive process has been subject to a series of experiments to assess its stability against the conversion into Form Alpha of higher melting point or in amorphous.
These experiments have been performed in various solvents and at various temperature and time conditions. […] The DSC trace is the same for all the product prepared according to Example 18 and is the same of that of Beta polymorph.

[2] = Prior-art experiments to convert Beta form to Alpha form or amorphous, repeated under exactly the same conditions; type: physicochemical; details: conditions of U.S. Pat. No. 6,110,940 (example 2) and WO2008/137134 (examples 16-19; 2, 7, 8, 12, 13)
Protocol: In addition, the same experiments described in U.S. Pat. No. 6,110,940 (example 2) and WO2008/137134 (examples 16, 17, 18, 19) to convert Eletriptan Beta form to Alpha form and those described in WO2008/137134 (examples 2, 7, 8, 12 and 13) to convert Eletriptan Beta form to amorphous were carried out on Eletriptan Hydrobromide form Beta of invention, applying exactly the same conditions. […] There results confirms the stability of Eletriptan hydrobromide Beta form of invention and his different behaviour in comparison with the same form described in the State of the Art.

[3] = DSC study with heating/cooling cycles to convert Beta form to other forms; type: physicochemical
[4] = Hygroscopicity test as described in the European Pharmacopoeia 5.0; type: physicochemical; details: 25° C., 80% rel. humidity, 24 h
Protocol: Eletriptan hydrobromide Beta stable form obtained according to the inventive process has been subject to the hygroscopicity test as described in the European Pharmacopoeia 5.0 (25° C., 80% rel. humidity, 24 h).

[5] = reported in U.S. Pat. No. 6,110,940; converts into Form Alpha; cited from earlier work

Structure (SMILES)	stability against conversion into Form Alpha, amorphous or other forms [1]	polymorphic form obtained [2]	polymorphic form obtained [3]	hygroscopicity (classification) [4]	hygroscopicity (value) [4] [%]	stability of polymorph [5]
Br.CN1CCC[C@@H]1Cc1c[nH]c2ccc(CCS(=O)(=O)c3ccccc3)cc12 [Eletriptan hydrobromide Form Beta, 3-{[(2R)-1-methylpyrrolidin-2-yl]methyl}-5-[2-(phenylsulfonyl)ethyl]-1H-indole hydrobromide]	did not convert into Form A, amorphous or other crystalline forms or in any hydrated form	provided only Eletriptan hydrobromide form Beta	provided always Form Beta	not hygroscopic	0.1	
Br.CN1CCC[C@@H]1Cc1c[nH]c2ccc(CCS(=O)(=O)c3ccccc3)cc12 [Form Beta of Eletriptan hydrobromide]						not stable
